ChEMBL document CHEMBL1177794, “Broad spectrum alkynyl inhibitors of T315I Bcr-Abl” (Bioorg Med Chem Lett, 2010)

Tests used:
[1] = tested on: Mast/stem cell growth factor receptor Kit (Homo sapiens), P10721 [V559D]; assay: Inhibition of KIT V559D mutant at 10 uM; details: values are per cent of control
[2] = tested on: Epidermal growth factor receptor (Homo sapiens), P00533 [L858R,T790M]; assay: Inhibition of EGFR L858R, T790M mutant at 10 uM; values are per cent of control
[3] = molecular target: Dual specificity protein kinase CLK1 (Homo sapiens) (UniProt P49759); assay: Inhibition of CLK1 at 10 uM; details: values are per cent of control
[4] = molecular target: Tyrosine-protein kinase TXK (Homo sapiens) (UniProt P42681); assay: Inhibition of TXK at 10 uM; details: values are per cent of control
[5] = molecular target: Serine/threonine-protein kinase 16 (Homo sapiens) (UniProt O75716); assay: Inhibition of STK16 at 10 uM
[6] = molecular target: cAMP-dependent protein kinase catalytic subunit PRKX (Homo sapiens) (UniProt P51817); assay: Inhibition of PRKX at 10 uM
[7] = tested on: Tyrosine-protein kinase ABL1 (Homo sapiens), P00519 [F317L]; assay: Inhibition of phosphorylated ABL1 F317L mutant at 10 uM; details: values are per cent of control
[8] = molecular target: Serine/threonine-protein kinase tousled-like 2 (Homo sapiens) (UniProt Q86UE8); assay: Inhibition of TLK2 at 10 uM; details: values are per cent of control
[9] = molecular target: MAP/microtubule affinity-regulating kinase 4 (Homo sapiens) (UniProt Q96L34); assay: Inhibition of MARK4 at 10 uM; details: values are per cent of control
[10] = molecular target: Cyclin-dependent kinase-like 5 (Homo sapiens) (UniProt O76039); assay: Inhibition of CDKL5 at 10 uM; details: values are per cent of control
[11] = molecular target: Atypical kinase COQ8B, mitochondrial (Homo sapiens) (UniProt Q96D53); assay: Inhibition of ADCK4 at 10 uM; details: values are per cent of control
Chain of Atypical kinase COQ8B, mitochondrial (Homo sapiens) (Q96D53 whole entry): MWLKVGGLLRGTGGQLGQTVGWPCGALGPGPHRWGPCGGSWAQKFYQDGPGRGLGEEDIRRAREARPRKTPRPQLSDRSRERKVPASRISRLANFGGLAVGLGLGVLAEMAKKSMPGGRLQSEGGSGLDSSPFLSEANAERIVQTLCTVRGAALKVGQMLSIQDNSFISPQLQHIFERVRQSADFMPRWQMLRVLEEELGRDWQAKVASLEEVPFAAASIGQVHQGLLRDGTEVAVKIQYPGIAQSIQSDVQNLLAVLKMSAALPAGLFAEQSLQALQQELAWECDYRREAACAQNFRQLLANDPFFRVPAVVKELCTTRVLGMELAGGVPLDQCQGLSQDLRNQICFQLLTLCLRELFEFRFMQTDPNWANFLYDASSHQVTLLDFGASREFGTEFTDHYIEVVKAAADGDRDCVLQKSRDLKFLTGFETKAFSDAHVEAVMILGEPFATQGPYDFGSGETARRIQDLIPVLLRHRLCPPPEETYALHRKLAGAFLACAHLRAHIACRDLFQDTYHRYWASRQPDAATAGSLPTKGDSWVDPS

[12] = molecular target: Cyclin-dependent kinase 15 (Homo sapiens) (UniProt Q96Q40); assay: Inhibition of PFTAIRE2 at 10 uM; details: values are per cent of control
Chain of Cyclin-dependent kinase 15 (Homo sapiens) (Q96Q40 whole entry): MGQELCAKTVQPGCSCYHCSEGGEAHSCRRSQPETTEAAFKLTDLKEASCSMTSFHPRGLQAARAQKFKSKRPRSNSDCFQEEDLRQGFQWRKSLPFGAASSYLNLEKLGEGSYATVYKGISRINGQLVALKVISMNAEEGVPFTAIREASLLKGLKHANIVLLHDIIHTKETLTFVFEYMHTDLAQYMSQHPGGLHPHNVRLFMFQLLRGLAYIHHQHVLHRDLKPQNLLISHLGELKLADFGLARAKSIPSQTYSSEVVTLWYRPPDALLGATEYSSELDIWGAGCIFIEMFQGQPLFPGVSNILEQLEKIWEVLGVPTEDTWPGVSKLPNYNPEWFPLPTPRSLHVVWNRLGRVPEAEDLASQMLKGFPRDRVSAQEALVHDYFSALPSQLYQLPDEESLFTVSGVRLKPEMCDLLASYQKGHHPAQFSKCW

[13] = molecular target: Platelet-derived growth factor receptor beta (Homo sapiens) (UniProt P09619); assay: Inhibition of PDGFRB at 10 uM; values are per cent of control
Chain of Platelet-derived growth factor receptor beta (Homo sapiens) (P09619 whole entry): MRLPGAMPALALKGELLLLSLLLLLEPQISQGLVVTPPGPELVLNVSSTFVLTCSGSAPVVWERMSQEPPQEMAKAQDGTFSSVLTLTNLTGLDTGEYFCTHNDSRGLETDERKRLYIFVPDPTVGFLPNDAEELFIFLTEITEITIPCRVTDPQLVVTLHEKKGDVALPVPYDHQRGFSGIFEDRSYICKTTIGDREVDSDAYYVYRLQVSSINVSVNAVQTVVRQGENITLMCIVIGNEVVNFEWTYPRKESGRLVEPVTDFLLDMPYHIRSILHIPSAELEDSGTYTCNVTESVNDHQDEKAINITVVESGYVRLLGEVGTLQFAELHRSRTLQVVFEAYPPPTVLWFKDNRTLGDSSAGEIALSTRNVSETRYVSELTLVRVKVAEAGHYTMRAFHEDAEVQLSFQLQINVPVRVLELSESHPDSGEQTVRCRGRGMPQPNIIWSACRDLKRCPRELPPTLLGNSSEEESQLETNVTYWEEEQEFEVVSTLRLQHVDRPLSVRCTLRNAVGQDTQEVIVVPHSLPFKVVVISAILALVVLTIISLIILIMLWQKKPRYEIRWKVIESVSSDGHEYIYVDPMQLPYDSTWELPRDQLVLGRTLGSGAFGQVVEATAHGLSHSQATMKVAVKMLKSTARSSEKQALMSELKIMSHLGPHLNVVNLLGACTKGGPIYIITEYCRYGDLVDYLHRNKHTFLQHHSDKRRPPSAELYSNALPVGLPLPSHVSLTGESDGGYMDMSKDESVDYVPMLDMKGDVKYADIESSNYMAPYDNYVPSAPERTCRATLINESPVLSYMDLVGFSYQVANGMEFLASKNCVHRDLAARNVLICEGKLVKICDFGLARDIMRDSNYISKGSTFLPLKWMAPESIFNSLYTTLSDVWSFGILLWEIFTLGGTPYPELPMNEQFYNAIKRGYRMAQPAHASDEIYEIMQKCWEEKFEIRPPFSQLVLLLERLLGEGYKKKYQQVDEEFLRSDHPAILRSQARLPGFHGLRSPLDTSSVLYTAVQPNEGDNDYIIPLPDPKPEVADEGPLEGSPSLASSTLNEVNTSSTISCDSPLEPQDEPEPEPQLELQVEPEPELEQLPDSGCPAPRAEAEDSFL

[14] = molecular target: Tyrosine-protein kinase SYK (Homo sapiens) (UniProt P43405); assay: Inhibition of SYK at 10 uM
[15] = molecular target: Phosphorylase b kinase gamma catalytic chain, liver/testis isoform (Homo sapiens) (UniProt P15735); assay: Inhibition of PHKG2 at 10 uM
[16] = molecular target: BDNF/NT-3 growth factors receptor (Homo sapiens) (UniProt Q16620); assay: Inhibition of TRKB at 10 uM; details: values are per cent of control
[17] = molecular target: Casein kinase I isoform gamma-3 (Homo sapiens) (UniProt Q9Y6M4); assay: Inhibition of CSNK1G3 at 10 uM; values are per cent of control
[18] = molecular target: Tyrosine-protein kinase ZAP-70 (Homo sapiens) (UniProt P43403); assay: Inhibition of ZAP70 at 10 uM; details: values are per cent of control
[19] = tested on: Epidermal growth factor receptor (Homo sapiens), P00533 [UNDEFINED MUTATION]; assay: Inhibition of EGFR L747-E749del, A750P mutant at 10 uM; values are per cent of control
[20] = molecular target: Serine/threonine-protein kinase 3 (Homo sapiens) (UniProt Q13188); assay: Inhibition of MST2 at 10 uM
[21] = molecular target: Homeodomain-interacting protein kinase 1 (Homo sapiens) (UniProt Q86Z02); assay: Inhibition of HIPK1 at 10 uM; details: values are per cent of control
[22] = molecular target: Protein kinase C theta type (Homo sapiens) (UniProt Q04759); assay: Inhibition of PRKCQ at 10 uM
Chain of Protein kinase C theta type (Homo sapiens) (Q04759 whole entry, looked up): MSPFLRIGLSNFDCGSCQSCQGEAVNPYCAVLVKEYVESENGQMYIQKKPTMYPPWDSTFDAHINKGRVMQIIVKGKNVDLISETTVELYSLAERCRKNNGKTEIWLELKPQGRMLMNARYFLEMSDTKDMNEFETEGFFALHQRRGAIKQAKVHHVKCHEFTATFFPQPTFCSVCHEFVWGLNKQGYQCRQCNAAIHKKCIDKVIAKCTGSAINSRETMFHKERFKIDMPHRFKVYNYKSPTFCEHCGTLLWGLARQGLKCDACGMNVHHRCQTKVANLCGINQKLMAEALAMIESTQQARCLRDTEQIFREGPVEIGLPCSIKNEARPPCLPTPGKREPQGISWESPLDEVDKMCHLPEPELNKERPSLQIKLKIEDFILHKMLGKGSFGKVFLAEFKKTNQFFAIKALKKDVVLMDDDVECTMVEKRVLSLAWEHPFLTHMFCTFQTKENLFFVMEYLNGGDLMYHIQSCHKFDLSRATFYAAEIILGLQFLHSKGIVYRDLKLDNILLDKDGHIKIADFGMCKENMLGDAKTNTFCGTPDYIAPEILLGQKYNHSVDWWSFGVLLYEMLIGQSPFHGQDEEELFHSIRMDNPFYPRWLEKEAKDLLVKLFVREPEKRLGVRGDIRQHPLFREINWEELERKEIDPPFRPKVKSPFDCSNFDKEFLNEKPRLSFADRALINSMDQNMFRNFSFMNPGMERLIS

[23] = molecular target: Serine/threonine-protein kinase Sgk3 (Homo sapiens) (UniProt Q96BR1); assay: Inhibition of SGK3 at 10 uM
[24] = molecular target: STE20-like serine/threonine-protein kinase (Homo sapiens) (UniProt Q9H2G2); assay: Inhibition of SLK at 10 uM
[25] = molecular target: Mitogen-activated protein kinase 9 (Homo sapiens) (UniProt P45984); assay: Inhibition of JNK2 at 10 uM; values are per cent of control
[26] = molecular target: Death-associated protein kinase 2 (Homo sapiens) (UniProt Q9UIK4); assay: Inhibition of DAPK2 at 10 uM; details: values are per cent of control
[27] = molecular target: Serine/threonine-protein kinase SBK1 (Homo sapiens) (UniProt Q52WX2); assay: Inhibition of SBK1 at 10 uM
Chain of Serine/threonine-protein kinase SBK1 (Homo sapiens) (Q52WX2 whole entry): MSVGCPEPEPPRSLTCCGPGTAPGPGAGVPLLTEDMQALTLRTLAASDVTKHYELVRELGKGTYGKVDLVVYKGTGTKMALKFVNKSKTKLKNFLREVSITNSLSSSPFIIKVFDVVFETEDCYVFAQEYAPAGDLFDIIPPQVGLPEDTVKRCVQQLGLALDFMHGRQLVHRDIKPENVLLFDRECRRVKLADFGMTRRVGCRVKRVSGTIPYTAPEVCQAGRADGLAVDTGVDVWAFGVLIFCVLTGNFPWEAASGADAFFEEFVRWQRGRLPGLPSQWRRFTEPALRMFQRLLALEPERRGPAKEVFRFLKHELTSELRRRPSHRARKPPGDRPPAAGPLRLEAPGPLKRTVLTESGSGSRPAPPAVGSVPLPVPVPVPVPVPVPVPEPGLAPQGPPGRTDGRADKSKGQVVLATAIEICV

[28] = molecular target: Focal adhesion kinase 1 (Homo sapiens) (UniProt Q05397); assay: Inhibition of FAK at 10 uM; details: values are per cent of control
[29] = molecular target: Mitogen-activated protein kinase kinase kinase 19 (Homo sapiens) (UniProt Q56UN5); assay: Inhibition of YSK4 at 10 uM; details: values are per cent of control
[30] = molecular target: Muscle, skeletal receptor tyrosine-protein kinase (Homo sapiens) (UniProt O15146); assay: Inhibition of MUSK at 10 uM
[31] = molecular target: Mitogen-activated protein kinase kinase kinase 2 (Homo sapiens) (UniProt Q9Y2U5); assay: Inhibition of MAP3K2 at 10 uM; details: values are per cent of control
[32] = tested on: Epidermal growth factor receptor (Homo sapiens), P00533 [L861Q]; assay: Inhibition of EGFR L861Q mutant at 10 uM; values are per cent of control
Chain of Epidermal growth factor receptor (Homo sapiens), P00533 [L861Q] (P00533 whole entry L861Q): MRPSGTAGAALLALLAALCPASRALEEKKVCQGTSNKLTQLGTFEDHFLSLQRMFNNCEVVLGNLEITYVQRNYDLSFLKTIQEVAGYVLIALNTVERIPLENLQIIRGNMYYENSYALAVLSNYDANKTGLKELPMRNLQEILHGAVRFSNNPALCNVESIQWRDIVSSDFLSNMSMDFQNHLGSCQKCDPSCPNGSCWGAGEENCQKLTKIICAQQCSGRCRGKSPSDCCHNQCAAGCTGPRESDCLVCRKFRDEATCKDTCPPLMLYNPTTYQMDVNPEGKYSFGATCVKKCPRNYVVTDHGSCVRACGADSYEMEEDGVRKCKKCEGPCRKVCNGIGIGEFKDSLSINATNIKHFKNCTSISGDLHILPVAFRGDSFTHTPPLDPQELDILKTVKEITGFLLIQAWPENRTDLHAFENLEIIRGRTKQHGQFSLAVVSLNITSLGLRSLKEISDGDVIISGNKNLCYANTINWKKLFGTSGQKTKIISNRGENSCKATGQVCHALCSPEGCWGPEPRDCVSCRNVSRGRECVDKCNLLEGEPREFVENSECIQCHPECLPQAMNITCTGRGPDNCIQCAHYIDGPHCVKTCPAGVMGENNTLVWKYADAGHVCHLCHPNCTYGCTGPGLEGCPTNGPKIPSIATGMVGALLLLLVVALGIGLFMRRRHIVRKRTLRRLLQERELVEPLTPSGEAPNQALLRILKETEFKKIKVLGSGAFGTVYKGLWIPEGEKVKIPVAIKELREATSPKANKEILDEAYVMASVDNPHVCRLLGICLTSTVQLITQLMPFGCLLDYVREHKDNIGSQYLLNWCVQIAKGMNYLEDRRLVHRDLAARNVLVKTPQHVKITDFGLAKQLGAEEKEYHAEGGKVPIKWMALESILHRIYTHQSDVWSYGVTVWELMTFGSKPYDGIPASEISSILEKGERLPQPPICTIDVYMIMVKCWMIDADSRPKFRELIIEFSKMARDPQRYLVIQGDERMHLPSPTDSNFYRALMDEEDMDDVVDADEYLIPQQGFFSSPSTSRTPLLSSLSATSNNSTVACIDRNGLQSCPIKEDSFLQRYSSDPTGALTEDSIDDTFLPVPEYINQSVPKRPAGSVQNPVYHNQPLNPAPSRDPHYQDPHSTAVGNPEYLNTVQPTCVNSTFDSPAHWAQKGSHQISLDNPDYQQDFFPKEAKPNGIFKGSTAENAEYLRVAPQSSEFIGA

[33] = molecular target: TGF-beta receptor type-1 (Homo sapiens) (UniProt P36897); assay: Inhibition of TGFBR1 at 10 uM
[34] = molecular target: Serine/threonine-protein kinase N2 (Homo sapiens) (UniProt Q16513); assay: Inhibition of PKN2 at 10 uM
[35] = molecular target: Tyrosine-protein kinase HCK (Homo sapiens) (UniProt P08631); assay: Inhibition of HCK at 10 uM; details: values are per cent of control
Chain of Tyrosine-protein kinase HCK (Homo sapiens) (P08631 2-526 limits assumed): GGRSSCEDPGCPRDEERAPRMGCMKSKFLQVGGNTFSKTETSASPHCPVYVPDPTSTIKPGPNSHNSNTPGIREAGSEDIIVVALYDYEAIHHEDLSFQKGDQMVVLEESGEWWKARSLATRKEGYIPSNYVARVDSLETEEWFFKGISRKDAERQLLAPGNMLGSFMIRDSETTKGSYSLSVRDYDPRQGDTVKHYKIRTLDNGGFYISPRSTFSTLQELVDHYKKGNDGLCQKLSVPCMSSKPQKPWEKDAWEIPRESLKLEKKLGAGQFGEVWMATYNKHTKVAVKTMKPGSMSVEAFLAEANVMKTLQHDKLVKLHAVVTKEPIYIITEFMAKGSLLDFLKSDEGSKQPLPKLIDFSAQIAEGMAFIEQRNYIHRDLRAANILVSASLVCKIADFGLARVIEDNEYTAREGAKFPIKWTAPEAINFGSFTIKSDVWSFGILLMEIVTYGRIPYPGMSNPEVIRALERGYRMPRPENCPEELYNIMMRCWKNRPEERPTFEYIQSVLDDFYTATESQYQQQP

[36] = molecular target: Cyclin-dependent kinase 5 (Homo sapiens) (UniProt Q00535); assay: Inhibition of CDK5 at 10 uM; values are per cent of control
[37] = molecular target: Ribosomal protein S6 kinase alpha-6 (Homo sapiens) (UniProt Q9UK32); assay: Inhibition of RSK4 N-terminal domain1 at 10 uM
[38] = molecular target: Cyclin-dependent kinase-like 1 (Homo sapiens) (UniProt Q00532); assay: Inhibition of CDKL1 at 10 uM; details: values are per cent of control
[39] = molecular target: Mitogen-activated protein kinase kinase kinase 12 (Homo sapiens) (UniProt Q12852); assay: Inhibition of DLK at 10 uM; values are per cent of control
[40] = molecular target: Ephrin type-A receptor 3 (Homo sapiens) (UniProt P29320); assay: Inhibition of EPHA3 at 10 uM; details: values are per cent of control
[41] = molecular target: Dual specificity protein kinase CLK4 (Homo sapiens) (UniProt Q9HAZ1); assay: Inhibition of CLK4 at 10 uM; details: values are per cent of control
[42] = molecular target: Mitogen-activated protein kinase kinase kinase kinase 3 (Homo sapiens) (UniProt Q8IVH8); assay: Inhibition of MAP4K3 at 10 uM; values are per cent of control

Structure (SMILES): CCN1CCN(Cc2ccc(NC(=O)c3ccc(C)c(C#Cc4cccnc4)c3)cc2C(F)(F)F)CC1
- residual binding, % of control [1]: 0%
- level, % of control [2]: 100%
- residual binding, % of control [3]: 3.9%
- residual binding, % of control [4]: 0.3%
- inhibition [5]: 100%
- inhibition [6]: 3.6%
- residual binding, % of control [7]: 0.85%
- residual binding, % of control [8]: 100%
- residual binding, % of control [9]: 87%
- residual binding, % of control [10]: 12%
- residual binding, % of control [11]: 85%
- residual binding, % of control [12]: 6.4%
- level, % of control [13]: 0%
- inhibition [14]: 13%
- inhibition [15]: 92%
- residual binding, % of control [16]: 1.6%
- level, % of control [17]: 85%
- residual binding, % of control [18]: 62%
- level, % of control [19]: 1.2%
- inhibition [20]: 53%
- residual binding, % of control [21]: 37%
- inhibition [22]: 55%
- inhibition [23]: 6.2%
- inhibition [24]: 0.1%
- level, % of control [25]: 0%
- residual binding, % of control [26]: 100%
- inhibition [27]: 88%
- residual binding, % of control [28]: 75%
- residual binding, % of control [29]: 0.1%
- inhibition [30]: 0.05%
- residual binding, % of control [31]: 0.15%
- level, % of control [32]: 0.2%
- inhibition [33]: 100%
- inhibition [34]: 36%
- residual binding, % of control [35]: 0.05%
- level, % of control [36]: 10%
- inhibition [37]: 47%
- residual binding, % of control [38]: 88%
- level, % of control [39]: 9.8%
- residual binding, % of control [40]: 0.85%
- residual binding, % of control [41]: 15%
- level, % of control [42]: 2.6%

Structure (SMILES): CCN1CCN(Cc2ccc(NC(=O)c3ccc(C)c(C#Cc4cnc5[nH]ccc5c4)c3)cc2C(F)(F)F)CC1
- residual binding, % of control [1]: 0%
- level, % of control [2]: 100%
- residual binding, % of control [3]: 6.8%
- residual binding, % of control [4]: 0.25%
- inhibition [5]: 47%
- inhibition [6]: 19%
- residual binding, % of control [7]: 0.85%
- residual binding, % of control [8]: 100%
- residual binding, % of control [9]: 85%
- residual binding, % of control [10]: 28%
- residual binding, % of control [11]: 82%
- residual binding, % of control [12]: 2%
- level, % of control [13]: 0%
- inhibition [14]: 1%
- inhibition [15]: 100%
- residual binding, % of control [16]: 2%
- level, % of control [17]: 22%
- residual binding, % of control [18]: 28%
- level, % of control [19]: 0.25%
- inhibition [20]: 26%
- residual binding, % of control [21]: 48%
- inhibition [22]: 36%
- inhibition [23]: 11%
- inhibition [24]: 0.3%
- level, % of control [25]: 0%
- residual binding, % of control [26]: 100%
- inhibition [27]: 87%
- residual binding, % of control [28]: 59%
- residual binding, % of control [29]: 0.1%
- inhibition [30]: 0%
- residual binding, % of control [31]: 0.1%
- level, % of control [32]: 0%
- inhibition [33]: 100%
- inhibition [34]: 2.2%
- residual binding, % of control [35]: 0.15%
- level, % of control [36]: 24%
- inhibition [37]: 28%
- residual binding, % of control [38]: 89%
- level, % of control [39]: 3.8%
- residual binding, % of control [40]: 0.75%
- residual binding, % of control [41]: 32%
- level, % of control [42]: 1.8%
